The source of these data is ChEMBL document CHEMBL1857833, “Screening and optimization of specific chemical series against human African Trypanosomiasis (HAT)”.

Values after ≈ are worked out from the molar mass of the structure shown. Values joined by “and” are separate entries in the source; they are usually repeats but may differ in a detail not shown here. Equal entries are not always repeated. A value given as a limit tells only on which side of the number the result lay.

Data set [1] is described as follows: DNDI: Cytotoxicity against L929 mouse fibroblasts, CYTO-SP, 24 hour. The following applies: mouse, L929 mouse fibroblasts. Type of data set: toxicity, cell-based.
Data set [2] has as its system Trypanosoma brucei. Briefly: DNDI: Inhibition of Human African Trypanosomiasis, Cross 22, in vitro. Type of data set: functional, organism-based.
Data set [3] deals with Trypanosoma brucei. Briefly: DNDI: Inhibition of Human African Trypanosomiasis, SBRI 427, in vitro. Type of data set: functional, organism-based.
Data set [4] in a line: DNDI: Cytotoxicity against L929 mouse fibroblasts, 72 hour. Type of data set: toxicity, cell-based. The note with it: mouse, L929 mouse fibroblasts.
The conditions of data set [5]: mouse, microsomes, 1 µM.
Description: DNDI: in vitro intrinsic clearance in mouse liver microsomes at a concentration of 1uM
Data set [6] can be described thus: DNDI: Solubility in phosphate buffered saline at pH7.4 measured by nephelometry at room temperature (NEPH-RT). The following applies: pH 7.4. Type of data set: physicochemical.
A further data set can be described thus: in vitro. The following applies: mouse, liver microsomes, t (1 / 2).
Data set [7] in a line: DNDI: Lipophilicity measured in Chromatographic hydrophobicity index (CHI) assay, pH 7.4. Type of data set: physicochemical. The following applies: buffer.
The subject of another data set is Trypanosoma cruzi. Briefly: DNDI: Inhibition of Chagas Disease parasite Trypanosoma cruzi (Tulahuen LacZ, Clone C4), in vitro. Type of data set: functional, organism-based.
Data set [8] is described as follows: DNDI: Cytotoxicity against L-6 rat myoblasts from skeletal muscle cells. The note with it: L-6 rat skeletal muscle myoblasts. Type of data set: toxicity, cell-based, L6.
Another data set relates to Leishmania donovani. Briefly: DNDI: Inhibition of formation of Leishmania donovani (strain MHOM/ET/67/L82) axenic amastigotes, in vitro. Type of data set: functional, organism-based.
Data set [9] concerns Trypanosoma brucei rhodesiense. Briefly: DNDI: Inhibition of Human African Trypanosomiasis (HAT), STIB 900, in vitro. Type of data set: functional, organism-based.
The test system of another data set is Plasmodium falciparum. Briefly: DNDI: Inhibition of the malaria parasite Plasmodium falciparum, in vitro. Type of data set: functional, organism-based. The note with it: K1.
The mark [10] stands for this setting: Trypanosoma brucei, SBRI 427, read-out: IC50.

Description for in vitro: DNDI: half life in mouse liver microsomes at a concentration of 1uM

`CC1(C)[C@H]2CC[C@@H](CNCc3coc(-c4ccc(Cl)cc4)n3)[C@@H]1C2` came in with an IC50 at 24 h in [1] greater than 50 µg/mL. The IC50 with Trypanosoma brucei [2] is 1.04 µg/mL (≈ 3.02 µM); in the data set with Trypanosoma brucei [3], 0.9 µg/mL and 1.53 µg/mL; in the data set with Trypanosoma brucei [3] (setting [10]), 0.8 µg/mL (≈ 2.32 µM). The molecule further came in with an IC50 at 72 h in data set [4] of 3.52 µg/mL (≈ 10.2 µM).

As to `CC1CC(NCc2coc(-c3ccc(C(C)(C)C)cc3)n2)CC(C)(C)C1` (centres undefined), the IC50 at 24 h in [1] was greater than 50 µg/mL. The IC50 in the data set on Trypanosoma brucei [2] and with Trypanosoma brucei [3] (setting [10]) was greater than 5 µg/mL in each case. In addition, the IC50 at 72 h in data set [4] was greater than 50 µg/mL.

Consider `CCCCOc1ccc(-c2nc(CN[C@@H]3C[C@@H]4C[C@H]([C@H]3C)C4(C)C)co2)cc1`, for which, in [1], inhibition was half-maximal at 8.05 µg/mL (≈ 21 µM) (IC50 at 24 h). For the same molecule, the IC50 in the data set with Trypanosoma brucei [2] was 0.58 µg/mL (≈ 1.52 µM); with Trypanosoma brucei [3], 0.61 µg/mL and 0.72 µg/mL and 0.29 µg/mL. In data set [4], this molecule returned an IC50 at 72 h of less than 3.13 µg/mL.

In turn, `O/N=C(/c1ccccc1-c1ccccc1)N1CCCCC1` displayed a CLint in vitro in data set [5] of 157 µL/min/mg. In addition, the IC50 at 24 h in [1] was greater than 50 µg/mL. In data set [6], this molecule returned a solubility (kinetic) of 50 µM (≈ 14 µg/mL). Further, in the data set “in vitro”, the half-life at 1 µM came out at 5 min. For the same molecule, the IC50 in the data set on Trypanosoma brucei [3] (setting [10]) is greater than 5 µg/mL. The same molecule showed a chromatographic logD in data set [7] of 4.46.

Turning to `CC1CC(NCc2coc(-c3ccc(Cl)cc3)n2)CC(C)(C)C1` (centres undefined), in [1], the IC50 at 24 h is greater than 50 µg/mL. For the same molecule, the IC50 with Trypanosoma brucei [2] is 0.85 µg/mL (≈ 2.55 µM); with Trypanosoma brucei [3], 0.86 µg/mL and 1.52 µg/mL; in the data set with Trypanosoma brucei [3] (setting [10]), 1.18 µg/mL (≈ 3.54 µM). This molecule also registered an IC50 at 72 h in data set [4] of less than 3.13 µg/mL.

With `CCCCc1ccc(-c2nc(CNCCN(C)C)co2)cc1`, the CLint in vitro in data set [5] is 55 µL/min/mg. The molecule further had a solubility (kinetic) in data set [6] of 1 µM (≈ 0.301 µg/mL). For the same molecule, in “in vitro”, the half-life at 1 µM was 15 min. Besides, the IC50 in the data set with Trypanosoma brucei [3] (setting [10]) turned out to be 0.79 µg/mL (≈ 2.62 µM). For the same molecule, the IC50 at 72 h in [4] was found to be 4.87 µg/mL (≈ 16.2 µM). In addition, the chromatographic logD in data set [7] turned out to be 4.97.

In data set [5], `CC(C)(C)c1ccc(-c2nc(CNC3[C@H]4C[C@@H]5C[C@@H](C[C@H]3C5)C4)co2)cc1` (some centres undefined) showed a CLint in vitro of 14 µL/min/mg. In data set [1], this molecule returned an IC50 at 24 h greater than 50 µg/mL. For the same molecule, the IC50 is 0.83 µg/mL (≈ 2.28 µM) in the data set on Trypanosoma brucei [2]; 0.87 µg/mL and 0.51 µg/mL and 1.1 µg/mL in the data set on Trypanosoma brucei [3]. In “in vitro”, this molecule had a half-life at 1 µM of 59 min. In addition, the IC50 at 72 h in [4] stood at 13 µg/mL (≈ 35.8 µM).

`CC1CCC(N/C(=N\O)c2cccnc2Oc2ccccc2Cl)CC1` (centres undefined) yielded an IC50 at 24 h in data set [1] greater than 50 µg/mL. The IC50 in the data set with Trypanosoma cruzi turned out to be 4.72 µg/mL (≈ 13.1 µM); in data set [8], 50.2 µg/mL (≈ 139 µM); in the data set on Leishmania donovani, 6.18 µg/mL (≈ 17.2 µM); in data set [9], 20.9 µg/mL (≈ 58.1 µM); in the data set on Plasmodium falciparum, 4.4 µg/mL (≈ 12.2 µM). Besides, the IC50 at 72 h in [4] was greater than 10 µg/mL.

Molecule `c1ccc(-c2ccc(-c3nc(CNC4[C@H]5C[C@@H]6C[C@@H](C[C@H]4C6)C5)co3)cc2)cc1` (some centres undefined) showed an IC50 at 24 h in [1] greater than 50 µg/mL. Moreover, the IC50 with Trypanosoma brucei [2] was 0.92 µg/mL (≈ 2.39 µM); in the data set on Trypanosoma brucei [3], 0.7 µg/mL and 0.85 µg/mL; with Trypanosoma brucei [3] (setting [10]), 1.18 µg/mL (≈ 3.07 µM). The same molecule showed an IC50 at 72 h in [4] of 9.8 µg/mL (≈ 25.5 µM).

The molecule `CCCCCC(C)NCc1coc(-c2ccccc2)n1` (centres undefined) showed an IC50 at 24 h in data set [1] of 32 µg/mL (≈ 117 µM). Also, the IC50 in the data set on Trypanosoma cruzi stood at 14.6 µg/mL (≈ 53.6 µM); in [8], 14.3 µg/mL (≈ 52.4 µM); in the data set on Trypanosoma brucei [3] (setting [10]) it was 4.72 µg/mL (≈ 17.3 µM); in the data set on Leishmania donovani it was 29.5 µg/mL (≈ 108 µM); in data set [9], 0.823 µg/mL (≈ 3.02 µM); in the data set on Plasmodium falciparum, 1.21 µg/mL (≈ 4.44 µM). In [4], this molecule yielded an IC50 at 72 h greater than 10 µg/mL.

In turn, `CCCCc1ccc(-c2nc(CNCCN3CCCC3)co2)cc1` showed a CLint in vitro in data set [5] of 33 µL/min/mg. The same molecule gave a solubility (kinetic) in [6] of less than 1 µM. In the data set “in vitro”, this molecule showed a half-life at 1 µM of 26 min. Besides, the IC50 with Trypanosoma brucei [3] (setting [10]) came to 0.84 µg/mL (≈ 2.57 µM). Also, in data set [4], half-maximal inhibition (IC50 at 72 h) required 3.87 µg/mL (≈ 11.8 µM). Besides, in [7], the chromatographic logD was determined as 4.89.

`C[C@@H]1[C@H]2C[C@@H](C[C@H]1NCc1coc(-c3ccc(-c4ccccc4)cc3)n1)C2(C)C`: in data set [1], the IC50 at 24 h was 8.15 µg/mL (≈ 21.1 µM). Besides, the figures for the IC50 in the data set on Trypanosoma brucei [2], in the data set with Trypanosoma brucei [3] and with Trypanosoma brucei [3] (setting [10]) were 0.37 µg/mL (≈ 0.957 µM), 0.19 µg/mL (≈ 0.492 µM) and 0.24 µg/mL (≈ 0.621 µM), respectively. In data set [4], this molecule yielded an IC50 at 72 h of less than 3.13 µg/mL.

In [1], `CCCCOc1ccc(-c2nc(CNC3[C@H]4C[C@@H]5C[C@@H](C[C@H]3C5)C4)co2)cc1` (some centres undefined) displayed an IC50 at 24 h of 15.9 µg/mL (≈ 41.8 µM). In addition, the IC50 in the data set on Trypanosoma brucei [2] is 0.34 µg/mL (≈ 0.893 µM); in the data set with Trypanosoma brucei [3], 0.37 µg/mL and 0.29 µg/mL; in the data set on Trypanosoma brucei [3] (setting [10]) it was 0.36 µg/mL (≈ 0.946 µM). Further, in [4], the IC50 at 72 h was less than 3.13 µg/mL.

On to `O/N=C(/Nc1ccc(F)cc1)c1ccccc1-c1ccccc1`, for which, in data set [5], the CLint in vitro was found to be 59 µL/min/mg. The same molecule registered an IC50 at 24 h in [1] greater than 50 µg/mL. This molecule showed a kinetic solubility in data set [6] of 25 µM (≈ 7.66 µg/mL). For the same molecule, the half-life at 1 µM in “in vitro” was found to be 14 min. Besides, the IC50 in the data set on Trypanosoma brucei [3] (setting [10]) came to 3.46 µg/mL (≈ 11.3 µM). This molecule also returned a chromatographic logD in [7] of 3.98.

Consider `CCCCCC(C)NCc1coc(-c2ccc(OCC(=O)c3ccccc3)cc2)n1` (centres undefined), for which, in data set [5], the CLint in vitro worked out at 188 µL/min/mg. The same molecule displayed a kinetic solubility in [6] of 2 µM (≈ 0.813 µg/mL). Also, in “in vitro”, the half-life at 1 µM came to 5 min. Moreover, in the data set on Trypanosoma brucei [3] (setting [10]), the IC50 came to 0.59 µg/mL (≈ 1.45 µM). In data set [4], this molecule displayed an IC50 at 72 h of 1.74 µg/mL (≈ 4.28 µM). Also, in [7], the chromatographic logD came to 4.16.
